Values of other authors, collected in patent publication US9669048B2, “Stable pharmaceutical composition of 5-aza-2′-deoxycitidine” (Fresenius Kabi Oncology Limited, priority 2012, dated 2017).

Conditions: reconstituted/diluted solution

## Nc1ncn([C@H]2CC(O)[C@@H](CO)O2)c(=O)n1 (stereo partly shown) [Decitabine, 5-aza-2′-deoxycitidine]
  Stability in aqueous media: highly unstable
